For 16 molecules, IC50 results are on record in ChEMBL document CHEMBL5360618, “PepScaf: Harnessing Machine Learning with In Vitro Selection toward De Novo Macrocyclic Peptides against IL-17C/IL-17RE Interaction” (J Med Chem, 2023).

A word on the IC50: it is the concentration at which inhibition is half-maximal.

Starred links: 1 amine or outer side, 2 acyl side, 3 side chain; linkers in the order of their positions; H or OH if unused. Positions of bridges follow the written chain, without caps; N, C: chain ends. Residues, ends and D or L forms follow the SMILES beside them. CO = O=C([*:1])[*:2]

The assay has as its target T1, IL17-RE-IL-17C (Homo sapiens, UniProt Q8NFR9+Q9P0M4).
T1 sequence (Q9P0M4 whole entry): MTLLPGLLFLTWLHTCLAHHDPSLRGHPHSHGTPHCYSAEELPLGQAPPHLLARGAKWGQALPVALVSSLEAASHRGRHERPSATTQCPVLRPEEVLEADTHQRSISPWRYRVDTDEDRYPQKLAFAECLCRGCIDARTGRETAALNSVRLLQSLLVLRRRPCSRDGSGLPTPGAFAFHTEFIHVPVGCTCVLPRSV
T1 sequence (Q8NFR9 whole entry): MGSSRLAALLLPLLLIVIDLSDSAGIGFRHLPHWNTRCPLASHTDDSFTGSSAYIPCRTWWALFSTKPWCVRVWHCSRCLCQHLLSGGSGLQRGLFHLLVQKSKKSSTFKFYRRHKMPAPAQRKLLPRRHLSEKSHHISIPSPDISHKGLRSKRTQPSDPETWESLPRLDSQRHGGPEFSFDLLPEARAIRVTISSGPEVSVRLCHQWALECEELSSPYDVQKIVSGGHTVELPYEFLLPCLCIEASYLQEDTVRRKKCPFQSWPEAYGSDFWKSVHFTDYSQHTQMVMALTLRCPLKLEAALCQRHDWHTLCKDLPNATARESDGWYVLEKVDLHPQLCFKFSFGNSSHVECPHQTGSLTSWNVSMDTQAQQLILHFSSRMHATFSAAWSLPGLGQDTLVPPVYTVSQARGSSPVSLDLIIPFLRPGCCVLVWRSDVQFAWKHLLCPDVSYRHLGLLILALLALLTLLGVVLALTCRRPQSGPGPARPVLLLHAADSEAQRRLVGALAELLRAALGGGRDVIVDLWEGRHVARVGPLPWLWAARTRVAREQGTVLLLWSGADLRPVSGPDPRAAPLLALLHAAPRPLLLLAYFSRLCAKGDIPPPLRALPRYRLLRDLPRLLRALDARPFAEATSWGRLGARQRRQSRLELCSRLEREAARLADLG
The experiment in a line: Inhibition of IL-17C/IL-17RE interaction (unknown origin) incubated for 1.5 hrs by ELISA method. In kind it is protein-complex assay.
In the case of `CC(C)C[C@@H]1NC(=O)[C@H](C)NC(=O)[C@H](CCCNC(=N)N)NC(=O)[C@H](Cc2ccc(O)cc2)NC(=O)[C@H](Cc2ccc(O)cc2)NC(=O)[C@H](Cc2c[nH]cn2)NC(=O)[C@H](Cc2c[nH]cn2)NC(=O)[C@H](Cc2ccc(O)cc2)NC(=O)SC[C@@H](C(=O)NCC(N)=O)NC(=O)CNC(=O)[C@H](CC(C)C)NC(=O)[C@H](CCC(=O)O)NC(=O)CNC(=O)[C@H](Cc2ccc(O)cc2)NC1=O` (YHHYYRALYGELGCG-NH2; linker N-14 via CO), the IC50 worked out at 254 nM.

For `CC[C@H](C)[C@@H]1NC(=O)[C@H](CCCNC(=N)N)NC(=O)[C@H](Cc2ccc(O)cc2)NC(=O)[C@H](Cc2ccc(O)cc2)NC(=O)C(C)NC(=O)[C@H](Cc2c[nH]cn2)NC(=O)[C@H](Cc2ccc(O)cc2)NC(=O)CSC[C@@H](C(=O)NCC(N)=O)NC(=O)CNC(=O)[C@H](CC(C)C)NC(=O)[C@H](CCC(=O)O)NC(=O)CNC(=O)[C@H](Cc2ccc(O)cc2)NC(=O)[C@H](CC(C)C)NC1=O` (single isomer, unassigned), 529 nM corresponded to half-maximal inhibition (IC50).

The molecule `CC[C@H](C)[C@@H]1NC(=O)[C@H](CCCNC(=N)N)NC(=O)[C@H](Cc2ccc(O)cc2)NC(=O)[C@H](Cc2ccc(O)cc2)NC(=O)[C@H](Cc2c[nH]cn2)NC(=O)[C@H](CCC(N)=O)NC(=O)[C@H](Cc2ccc(O)cc2)NC(=O)CSC[C@@H](C(=O)NCC(N)=O)NC(=O)CNC(=O)[C@H](CC(C)C)NC(=O)[C@H](CCC(=O)O)NC(=O)CNC(=O)[C@H](Cc2ccc(O)cc2)NC(=O)[C@H](CC(C)C)NC1=O` ({CH2CO}-YQHYYRILYGELGCG-NH2; thioether N-14) showed an IC50 of more than 30000 nM.

The molecule `CC[C@H](C)[C@@H]1NC(=O)[C@H](CCCNC(=N)N)NC(=O)[C@H](Cc2ccc(O)cc2)NC(=O)[C@H](Cc2c[nH]cn2)NC(=O)[C@H](Cc2c[nH]cn2)NC(=O)[C@H](Cc2c[nH]cn2)NC(=O)[C@H](Cc2ccc(O)cc2)NC(=O)CSC[C@@H](C(=O)NCC(N)=O)NC(=O)CNC(=O)[C@H](CC(C)C)NC(=O)[C@H](CCC(=O)O)NC(=O)CNC(=O)[C@H](Cc2ccc(O)cc2)NC(=O)[C@H](CC(C)C)NC1=O` ({CH2CO}-YHHHYRILYGELGCG-NH2; thioether N-14) displayed a half-maximal inhibitory concentration (IC50) of 6850 nM.

With `CC[C@H](C)[C@@H]1NC(=O)[C@H](Cc2c[nH]cn2)NC(=O)[C@H](Cc2ccc(O)cc2)NC(=O)CSC[C@@H](C(=O)NCC(N)=O)NC(=O)CNC(=O)[C@H](CC(C)C)NC(=O)[C@H](CC(=O)O)NC(=O)CNC(=O)[C@H](Cc2ccc(O)cc2)NC(=O)[C@H](CC(C)C)NC(=O)[C@H](CO)NC(=O)[C@H](C)NC(=O)[C@H](Cc2ccc(O)cc2)NC(=O)[C@H](Cc2ccc(O)cc2)NC1=O` ({CH2CO}-YHIYYASLYGDLGCG-NH2; thioether N-14), half-maximal inhibition (IC50) required 1.4 nM.

`CC[C@H](C)[C@@H]1NC(=O)[C@H](Cc2c[nH]cn2)NC(=O)[C@H](Cc2ccc(O)cc2)NC(=O)CSC[C@@H](C(=O)NCC(N)=O)NC(=O)CNC(=O)[C@H](CC(C)C)NC(=O)[C@H](C)NC(=O)CNC(=O)[C@H](Cc2ccc(O)cc2)NC(=O)[C@H](CC(C)C)NC(=O)[C@H](CO)NC(=O)[C@H](C)NC(=O)[C@H](Cc2ccc(O)cc2)NC(=O)[C@H](Cc2ccc(O)cc2)NC1=O` ({CH2CO}-YHIYYASLYGALGCG-NH2; thioether N-14): the IC50 worked out at 9.2 nM.

With `CC[C@H](C)[C@@H]1NC(=O)[C@H](Cc2c[nH]cn2)NC(=O)[C@H](Cc2ccc(O)cc2)NC(=O)CSC[C@@H](C(=O)NCC(N)=O)NC(=O)CNC(=O)[C@H](CC(C)C)NC(=O)[C@H](CO)NC(=O)CNC(=O)[C@H](Cc2ccc(O)cc2)NC(=O)[C@H](CC(C)C)NC(=O)[C@H]([C@@H](C)CC)NC(=O)[C@H](CCCNC(=N)N)NC(=O)[C@H](Cc2ccc(O)cc2)NC(=O)[C@H](Cc2ccc(O)cc2)NC1=O` ({CH2CO}-YHIYYRILYGSLGCG-NH2; thioether N-14), half-maximal inhibition (IC50) required 6.3 nM.

For `CC[C@H](C)[C@@H]1NC(=O)[C@H](CCCNC(=N)N)NC(=O)[C@H](Cc2ccc(O)cc2)NC(=O)[C@H](Cc2ccc(O)cc2)NC(=O)[C@H](Cc2c[nH]cn2)NC(=O)[C@H](Cc2c[nH]cn2)NC(=O)[C@H](Cc2ccc(O)cc2)NC(=O)CSC[C@@H](C(=O)NCC(N)=O)NC(=O)CNC(=O)[C@H](CC(C)C)NC(=O)[C@H](CCC(=O)O)NC(=O)CNC(=O)[C@H](Cc2ccc(O)cc2)NC(=O)[C@H](C)NC1=O` ({CH2CO}-YHHYYRIAYGELGCG-NH2; thioether N-14), the IC50 was more than 30000 nM.

On to `CC[C@H](C)[C@@H]1NC(=O)[C@H](CCCNC(=N)N)NC(=O)[C@H](Cc2ccc(O)cc2)NC(=O)[C@H](Cc2ccc(O)cc2)NC(=O)[C@H](Cc2c[nH]cn2)NC(=O)[C@H](Cc2c[nH]cn2)NC(=O)[C@H](Cc2ccc(O)cc2)NC(=O)CSC[C@@H](C(=O)NCC(N)=O)NC(=O)CNC(=O)[C@H](CC(C)C)NC(=O)CNC(=O)CNC(=O)[C@H](Cc2ccc(O)cc2)NC(=O)[C@H](CC(C)C)NC1=O` ({CH2CO}-YHHYYRILYGGLGCG-NH2; thioether N-14), for which inhibition was half-maximal at 211 nM (IC50).

The molecule `CC[C@H](C)[C@@H]1NC(=O)[C@H](CCCNC(=N)N)NC(=O)[C@H](Cc2ccc(O)cc2)NC(=O)[C@H](C)NC(=O)[C@H](Cc2c[nH]cn2)NC(=O)[C@H](Cc2c[nH]cn2)NC(=O)[C@H](Cc2ccc(O)cc2)NC(=O)CSC[C@@H](C(=O)NCC(N)=O)NC(=O)CNC(=O)[C@H](CC(C)C)NC(=O)[C@H](CCC(=O)O)NC(=O)CNC(=O)[C@H](Cc2ccc(O)cc2)NC(=O)[C@H](CC(C)C)NC1=O` ({CH2CO}-YHHAYRILYGELGCG-NH2; thioether N-14) showed an IC50 of more than 30000 nM.

The molecule `CC[C@H](C)[C@@H]1NC(=O)[C@H](CCCNC(=N)N)NC(=O)[C@H](Cc2ccc(O)cc2)NC(=O)[C@H](Cc2ccc(O)cc2)NC(=O)[C@@H]2CCCN2C(=O)[C@H](Cc2c[nH]cn2)NC(=O)[C@H](Cc2ccc(O)cc2)NC(=O)CSC[C@@H](C(=O)NCC(N)=O)NC(=O)CNC(=O)[C@H](CC(C)C)NC(=O)[C@H](CCC(=O)O)NC(=O)CNC(=O)[C@H](Cc2ccc(O)cc2)NC(=O)[C@H](CC(C)C)NC1=O` ({CH2CO}-YHPYYRILYGELGCG-NH2; thioether N-14) gave a concentration for half-maximal inhibition (IC50) of more than 30000 nM.

`CC[C@H](C)[C@@H]1NC(=O)[C@H](CCCNC(=N)N)NC(=O)[C@H](Cc2ccc(O)cc2)NC(=O)[C@H](Cc2ccc(O)cc2)NC(=O)[C@H](Cc2c[nH]cn2)NC(=O)[C@H](C)NC(=O)[C@H](Cc2ccc(O)cc2)NC(=O)CSC[C@@H](C(=O)NCC(N)=O)NC(=O)CNC(=O)[C@H](CC(C)C)NC(=O)[C@H](CCC(=O)O)NC(=O)CNC(=O)[C@H](Cc2ccc(O)cc2)NC(=O)[C@H](CC(C)C)NC1=O` ({CH2CO}-YAHYYRILYGELGCG-NH2; thioether N-14) returned an IC50 of more than 30000 nM.

Consider `CC(C)C[C@@H]1NC(=O)[C@H](CO)NC(=O)CNC(=O)[C@H](Cc2ccc(O)cc2)NC(=O)[C@H](CC(C)C)NC(=O)[C@H](CO)NC(=O)[C@H](C(C)C)NC(=O)[C@H](Cc2ccc(O)cc2)NC(=O)[C@H](Cc2ccc(O)cc2)NC(=O)[C@H](CC(C)C)NC(=O)[C@H](Cc2c[nH]cn2)NC(=O)[C@H](Cc2ccc(O)cc2)NC(=O)CSC[C@@H](C(=O)NCC(N)=O)NC(=O)CNC1=O` ({CH2CO}-YHLYYVSLYGSLGCG-NH2; thioether N-14), for which the IC50 was determined as 12 nM.

`CC[C@H](C)[C@@H]1NC(=O)[C@H](CCCNC(=N)N)NC(=O)[C@H](Cc2ccc(O)cc2)NC(=O)[C@H](Cc2ccc(O)cc2)NC(=O)[C@H](Cc2c[nH]cn2)NC(=O)[C@H](Cc2c[nH]cn2)NC(=O)[C@H](Cc2ccc(O)cc2)NC(=O)CSC[C@@H](C(=O)NCC(N)=O)NC(=O)CNC(=O)[C@H](CC(C)C)NC(=O)[C@H](C(C)C)NC(=O)CNC(=O)[C@H](Cc2ccc(O)cc2)NC(=O)[C@H](CC(C)C)NC1=O` ({CH2CO}-YHHYYRILYGVLGCG-NH2; thioether N-14) had an IC50 of 442 nM.

In turn, `CC(C)C[C@@H]1NC(=O)[C@H](CC(N)=O)NC(=O)CNC(=O)[C@H](Cc2ccc(O)cc2)NC(=O)[C@H](CC(C)C)NC(=O)[C@H](CO)NC(=O)[C@H](Cc2ccc(O)cc2)NC(=O)[C@H](Cc2ccc(O)cc2)NC(=O)[C@H](Cc2ccc(O)cc2)NC(=O)[C@H](CC(C)C)NC(=O)[C@H](Cc2c[nH]cn2)NC(=O)[C@H](Cc2ccc(O)cc2)NC(=O)CSC[C@@H](C(=O)NCC(N)=O)NC(=O)CNC1=O` ({CH2CO}-YHLYYYSLYGNLGCG-NH2; thioether N-14) registered an IC50 of 5.5 nM.

`CC[C@H](C)[C@@H]1NC(=O)[C@H](Cc2c[nH]cn2)NC(=O)[C@H](Cc2ccc(O)cc2)NC(=O)CSC[C@@H](C(=O)NCC(N)=O)NC(=O)CNC(=O)[C@H](CC(C)C)NC(=O)[C@H](CCCCN)NC(=O)CNC(=O)[C@H](Cc2ccc(O)cc2)NC(=O)[C@H](CC(C)C)NC(=O)[C@H](CO)NC(=O)[C@H](C)NC(=O)[C@H](Cc2ccc(O)cc2)NC(=O)[C@H](Cc2ccc(O)cc2)NC1=O` ({CH2CO}-YHIYYASLYGKLGCG-NH2; thioether N-14) had an IC50 of 4.2 nM.
